Measurements from EP4670733A1, “METHODS FOR PREPARING VIRAL PROTEINS AND USES THEREOF” (priority 2024, dated 2025).

How the values were obtained:
[1] = test system: NA enzyme; assay: NA enzymatic activity, MUNANA assay; format: biochemical, influenza virus; conditions: drug substance (Sample E6)
[2] = Endotoxin content, limulus amoebocyte lysate (LAL) assay; conditions: drug substance (Sample E6)
[3] = test system: B/Phuket/3073/2013 virus strain; set-up: species or system influenza virus
[4] = test system: B/Phuket/3073/2013 virus strain; assay: HA content by SRID; set-up: species or system influenza virus
[5] = test system: B/Phuket/3073/2013 virus strain; assay: Splitting efficiency by ultracentrifugation in sucrose gradient; set-up: species or system influenza virus

C11-15-secondary alcohol ethoxylates
NA enzymatic activity: NA activity [1]: 228 µmol/mL/h
NA enzymatic activity: Specific activity [1]: 1915 µmol/mg/h
Endotoxin content [2]: < 0.5 EU/mL
Residual infectious virus [3]: No Residual infectious virus
HA content in µg/mL (SRID) [4]: 241.24 µg/mL

Triton X-100
NA enzymatic activity: NA activity [1]: 155 µmol/mL/h
Endotoxin content [2]: < 0.5 EU/mL
Residual infectious virus [3]: No Residual infectious virus
HA content in µg/mL (SRID) [4]: 269.97 µg/mL
Splitting efficiency (ultracentrifugation in sucrose gradient) [5]: Conform* (Max total protein by OD280 at 40%sucrose for whole virus and lower than 30%sucrose for split virus.)
